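Step 1: Grow cells in 96-well plates. Step 2: Expose to compound for 48 hours at 5 concentrations. Step 3: Interpolate endpoints linearly; if unreached, use highest concentration. GI50 marks 50% less growth. TGI marks complete inhibition of growth.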
What was measured:
Test in all cases: NCI tumour cell line growth inhibition, 48 h; in the data active = GI50 below about 0.43 µM; inactive = the rest
SF-268 CNS = test system: SF-268 CNS
MDA-MB-435 = test system: MDA-MB-435
UACC-62 melanoma = test system: UACC-62 melanoma
M14 melanoma = test system: M14 melanoma
DU-145 prostate = test system: DU-145 prostate
OVCAR-5 ovarian = test system: OVCAR-5 ovarian
SF-539 CNS = test system: SF-539 CNS
PC-3 prostate = test system: PC-3 prostate
T-47D breast = test system: T-47D breast
UACC-257 melanoma = test system: UACC-257 melanoma
U251 CNS = test system: U251 CNS
HT29 colon = test system: HT29 colon
OVCAR-4 ovarian = test system: OVCAR-4 ovarian
IGROV1 ovarian = test system: IGROV1 ovarian
SW-620 colon = test system: SW-620 colon
SK-MEL-28 melanoma = test system: SK-MEL-28 melanoma
HCT-116 colon = test system: HCT-116 colon
OVCAR-8 ovarian = test system: OVCAR-8 ovarian
NCI-H522 lung = test system: NCI-H522 lung
SNB-19 CNS = test system: SNB-19 CNS
BT-549 breast = test system: BT-549 breast
SR leukemia = test system: SR leukemia
SK-OV-3 ovarian = test system: SK-OV-3 ovarian
HCC-2998 colon = test system: HCC-2998 colon
HOP-62 NSCLC = test system: HOP-62 NSCLC
A498 renal = test system: A498 renal
CCRF-CEM leukemia = test system: CCRF-CEM leukemia
HS 578T breast = test system: HS 578T breast
SK-MEL-2 melanoma = test system: SK-MEL-2 melanoma
786-0 renal = test system: 786-0 renal
SF-295 CNS = test system: SF-295 CNS
HOP-92 NSCLC = test system: HOP-92 NSCLC
MOLT-4 leukemia = test system: MOLT-4 leukemia
CAKI-1 renal = test system: CAKI-1 renal
RPMI-8226 leukemia = test system: RPMI-8226 leukemia
HCT-15 colon = test system: HCT-15 colon
SK-MEL-5 melanoma = test system: SK-MEL-5 melanoma
NCI-H23 lung = test system: NCI-H23 lung
SN12C renal = test system: SN12C renal
K-562 leukemia = test system: K-562 leukemia
KM12 colon = test system: KM12 colon
EKVX NSCLC = test system: EKVX NSCLC
MDA-MB-231 breast = test system: MDA-MB-231 breast
A549 NSCLC = test system: A549 NSCLC
NCI/ADR-RES ovarian = test system: NCI/ADR-RES ovarian
TK-10 renal = test system: TK-10 renal
OVCAR-3 ovarian = test system: OVCAR-3 ovarian
SNB-75 CNS = test system: SNB-75 CNS
MCF7 breast = test system: MCF7 breast
NCI-H460 lung = test system: NCI-H460 lung
LOX IMVI melanoma = test system: LOX IMVI melanoma
ACHN renal = test system: ACHN renal
MALME-3M melanoma = test system: MALME-3M melanoma
RXF 393 renal = test system: RXF 393 renal
NCI-H226 lung = test system: NCI-H226 lung
COLO 205 colon = test system: COLO 205 colon
UO-31 renal = test system: UO-31 renal

NC(=S)N/N=C1\CCCC1C(O)(C(F)(F)Cl)C(F)(F)Cl (stereo not drawn)
7.44 µM: TGI (SK-MEL-5 melanoma)
> 10 µM: TGI (SF-268 CNS) | TGI (MDA-MB-435) | TGI (UACC-62 melanoma) | TGI (M14 melanoma) | TGI (DU-145 prostate) | TGI (OVCAR-5 ovarian) | TGI (SF-539 CNS) | TGI (PC-3 prostate) | TGI (T-47D breast) | TGI (UACC-257 melanoma) | TGI (U251 CNS) | TGI (HT29 colon) | TGI (OVCAR-4 ovarian) | TGI (IGROV1 ovarian) | TGI (SW-620 colon) | TGI (SK-MEL-28 melanoma) | TGI (HCT-116 colon) | TGI (OVCAR-8 ovarian) | TGI (NCI-H522 lung) | TGI (SNB-19 CNS) | TGI (BT-549 breast) | TGI (SR leukemia) | TGI (SK-OV-3 ovarian) | TGI (HCC-2998 colon) | TGI (HOP-62 NSCLC) | TGI (A498 renal) | TGI (CCRF-CEM leukemia) | TGI (HS 578T breast) | TGI (SK-MEL-2 melanoma) | TGI (786-0 renal) | TGI (SF-295 CNS) | TGI (HOP-92 NSCLC) | TGI (MOLT-4 leukemia) | TGI (CAKI-1 renal) | TGI (RPMI-8226 leukemia) | TGI (HCT-15 colon) | TGI (NCI-H23 lung) | TGI (SN12C renal) | TGI (K-562 leukemia) | TGI (KM12 colon) | TGI (EKVX NSCLC) | TGI (MDA-MB-231 breast) | TGI (A549 NSCLC) | TGI (NCI/ADR-RES ovarian) | TGI (TK-10 renal) | TGI (OVCAR-3 ovarian) | TGI (SNB-75 CNS) | TGI (MCF7 breast) | TGI (NCI-H460 lung) | TGI (LOX IMVI melanoma) | TGI (ACHN renal) | TGI (MALME-3M melanoma) | TGI (RXF 393 renal) | TGI (NCI-H226 lung) | TGI (COLO 205 colon)

COC(=O)[C@H]1[C@H]2C[C@@H]3c4[nH]c5cc(OC)ccc5c4CCN3C[C@H]2C[C@@H](OC(=O)/C=C/c2cc(OC)c(OC)c(OC)c2)[C@@H]1OC
20 µM: TGI (M14 melanoma)
15.5 µM: TGI (SK-MEL-5 melanoma)
50.6 µM: TGI (MALME-3M melanoma)
> 100 µM: TGI (SF-268 CNS) | TGI (DU-145 prostate) | TGI (PC-3 prostate) | TGI (SW-620 colon) | TGI (SNB-19 CNS) | TGI (HCC-2998 colon) | TGI (MOLT-4 leukemia) | TGI (HCT-15 colon) | TGI (SN12C renal) | TGI (EKVX NSCLC) | TGI (A549 NSCLC) | TGI (NCI-H460 lung) | TGI (NCI-H226 lung)
41.8 µM: TGI (MDA-MB-231 breast)
26.3 µM: TGI (786-0 renal)
6.2 µM: TGI (OVCAR-3 ovarian)
24.6 µM: TGI (BT-549 breast)
11.2 µM: TGI (OVCAR-4 ovarian)
27 µM: TGI (NCI-H522 lung)
13.1 µM: TGI (LOX IMVI melanoma)
9.57 µM: TGI (HCT-116 colon)
9.54 µM: TGI (T-47D breast)
19.8 µM: TGI (SK-MEL-2 melanoma)
11.3 µM: TGI (TK-10 renal)
38.4 µM: TGI (K-562 leukemia)
14.6 µM: TGI (U251 CNS)
19.4 µM: TGI (MDA-MB-435)
33.4 µM: TGI (UACC-62 melanoma)
14.8 µM: TGI (COLO 205 colon)
6.63 µM: TGI (SR leukemia)
85.1 µM: TGI (RPMI-8226 leukemia)
21.5 µM: TGI (ACHN renal)
39.5 µM: TGI (HS 578T breast)
56.7 µM: TGI (OVCAR-5 ovarian)
18.6 µM: TGI (A498 renal)
33.5 µM: TGI (UO-31 renal)
31.5 µM: TGI (RXF 393 renal)
20.2 µM: TGI (SNB-75 CNS)
32.3 µM: TGI (SK-OV-3 ovarian)
50.4 µM: TGI (OVCAR-8 ovarian)
34.6 µM: TGI (IGROV1 ovarian)
24.9 µM: TGI (SF-295 CNS)
inactive: GI50 (SF-268 CNS) 9.48 µM | GI50 (MDA-MB-435) 3.22 µM | GI50 (UACC-62 melanoma) 14.5 µM | GI50 (M14 melanoma) 6.24 µM | GI50 (DU-145 prostate) 5.88 µM | GI50 (OVCAR-5 ovarian) 19.3 µM | GI50 (SF-539 CNS) 12.5 µM | GI50 (PC-3 prostate) 6.91 µM | GI50 (T-47D breast) 3.15 µM | GI50 (UACC-257 melanoma) 18.4 µM | GI50 (U251 CNS) 3.58 µM | GI50 (OVCAR-4 ovarian) 3.39 µM | GI50 (IGROV1 ovarian) 6.72 µM | GI50 (SW-620 colon) 8.47 µM | GI50 (SK-MEL-28 melanoma) 12.6 µM | GI50 (HCT-116 colon) 3.18 µM | GI50 (OVCAR-8 ovarian) 4.74 µM | GI50 (NCI-H522 lung) 10.4 µM | GI50 (SNB-19 CNS) 6.46 µM | GI50 (BT-549 breast) 11.6 µM | GI50 (SR leukemia) 2480 nM | GI50 (SK-OV-3 ovarian) 15.4 µM | GI50 (HCC-2998 colon) 24.2 µM | GI50 (HOP-62 NSCLC) 5.99 µM | GI50 (A498 renal) 4.23 µM | GI50 (UO-31 renal) 9.63 µM | GI50 (CCRF-CEM leukemia) 1480 nM | GI50 (HS 578T breast) 5.77 µM | GI50 (SK-MEL-2 melanoma) 5.73 µM | GI50 (786-0 renal) 9.86 µM | GI50 (SF-295 CNS) 5.54 µM | GI50 (HOP-92 NSCLC) 2850 nM | GI50 (MOLT-4 leukemia) 3.33 µM | GI50 (CAKI-1 renal) 3.97 µM | GI50 (RPMI-8226 leukemia) 4.05 µM | GI50 (HCT-15 colon) 4.32 µM | GI50 (SK-MEL-5 melanoma) 3.66 µM | GI50 (NCI-H23 lung) 17.6 µM | GI50 (SN12C renal) 4.56 µM | GI50 (K-562 leukemia) 3.24 µM | GI50 (KM12 colon) 4.44 µM | GI50 (EKVX NSCLC) 14.1 µM | GI50 (MDA-MB-231 breast) 10.6 µM | GI50 (A549 NSCLC) 8.89 µM | GI50 (NCI/ADR-RES ovarian) 4.55 µM | GI50 (TK-10 renal) 3.35 µM | GI50 (OVCAR-3 ovarian) 2620 nM | GI50 (SNB-75 CNS) 5.19 µM | GI50 (MCF7 breast) 4.75 µM | GI50 (NCI-H460 lung) 4.82 µM | GI50 (LOX IMVI melanoma) 3.31 µM | GI50 (ACHN renal) 4.05 µM | GI50 (MALME-3M melanoma) 18.7 µM | GI50 (RXF 393 renal) 11 µM | GI50 (NCI-H226 lung) 26.7 µM | GI50 (COLO 205 colon) 3.69 µM
28 µM: TGI (SK-MEL-28 melanoma)
28.5 µM: TGI (KM12 colon) | TGI (NCI/ADR-RES ovarian)
17.4 µM: TGI (HOP-92 NSCLC)
68.1 µM: TGI (UACC-257 melanoma)
25.5 µM: TGI (HOP-62 NSCLC)
26.8 µM: TGI (CAKI-1 renal)
25.4 µM: TGI (SF-539 CNS)
23 µM: TGI (MCF7 breast)
53 µM: TGI (NCI-H23 lung)
5.62 µM: TGI (CCRF-CEM leukemia)

Source: PubChem BioAssay (NCI)
